From patent publication US20260217708A1, “FUSED BENZAZEPINE DERIVATIVES FOR USE IN THE TREATMENT OF CANCER AND EPILEPSY” (UCB BIOPHARMA SRL, priority 2023, published 2026)

Tests used:
system Xc^− [1] = molecular target: T1, system Xc^− (Homo sapiens, UniProt Q9UPY5); details: background statement, no data given; cited from earlier work
T1 sequence (Q9UPY5 1-501): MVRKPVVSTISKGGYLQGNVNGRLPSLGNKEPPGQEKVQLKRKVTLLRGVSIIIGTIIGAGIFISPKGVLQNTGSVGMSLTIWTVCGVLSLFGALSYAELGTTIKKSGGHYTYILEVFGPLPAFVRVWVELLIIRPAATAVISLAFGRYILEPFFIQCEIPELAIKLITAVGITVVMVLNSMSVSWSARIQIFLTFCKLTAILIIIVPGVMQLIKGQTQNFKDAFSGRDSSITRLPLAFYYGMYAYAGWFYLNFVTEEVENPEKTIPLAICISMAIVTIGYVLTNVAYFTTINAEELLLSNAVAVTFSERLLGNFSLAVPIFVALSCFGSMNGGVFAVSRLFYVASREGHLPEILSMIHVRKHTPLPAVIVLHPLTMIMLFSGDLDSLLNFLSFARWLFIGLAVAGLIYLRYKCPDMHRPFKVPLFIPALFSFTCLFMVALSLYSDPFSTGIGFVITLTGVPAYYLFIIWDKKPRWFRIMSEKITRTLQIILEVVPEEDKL
T1 sequence (P08195 1-529 partner): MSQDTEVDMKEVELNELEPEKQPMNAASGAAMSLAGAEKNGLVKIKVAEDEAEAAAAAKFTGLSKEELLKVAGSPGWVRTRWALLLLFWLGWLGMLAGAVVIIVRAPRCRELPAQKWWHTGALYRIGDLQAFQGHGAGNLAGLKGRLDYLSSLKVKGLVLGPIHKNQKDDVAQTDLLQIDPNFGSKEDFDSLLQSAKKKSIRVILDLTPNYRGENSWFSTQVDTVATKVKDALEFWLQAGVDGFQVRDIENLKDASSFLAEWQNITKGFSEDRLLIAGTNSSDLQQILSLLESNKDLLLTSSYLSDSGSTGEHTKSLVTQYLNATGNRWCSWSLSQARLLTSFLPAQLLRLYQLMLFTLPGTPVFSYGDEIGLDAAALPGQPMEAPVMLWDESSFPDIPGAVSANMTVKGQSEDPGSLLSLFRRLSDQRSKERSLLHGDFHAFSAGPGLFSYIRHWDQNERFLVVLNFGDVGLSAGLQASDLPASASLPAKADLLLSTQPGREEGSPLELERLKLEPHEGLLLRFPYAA

system Xc^− [2] = molecular target: T1, system Xc^−; test: [^14C]L-Cystine uptake assay; type: cell-based; set-up: endogenous in cells; host or cells: H4 cells; details: H4 cells, sodium-free HEPES buffer, 0.5 μM L-[14C]Cystine and 4.5 μM L-Cystine, 1 hour at 37° C.; read-out: pIC50 [^14C] L-Cystine uptake assay (converted)
Summary of the method: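 H4 cells at 5×10^4 cells/well in sodium-free HEPES buffer were preincubated 15 min with compounds (1% DMSO). Uptake of 0.5 μM [14C]L-cystine plus 4.5 μM unlabelled L-cystine ran 1 hour at 37° C on scintillating plates. IC50 was set between 1% DMSO and 50 μM Erastin controls and expressed as pIC50.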

system Xc^− [3] = molecular target: T1, system Xc^−; test: Cystine-induced glutamate release assay; type: cell-based; set-up: endogenous in cells; host or cells: H4 cells; details: H4 cells, sodium-free HEPES buffer, 50 μM L-Cystine, 2 hours, Amplex Red glutamate readout; read-out: pIC50 Cystine-induced glutamate release assay (converted)
Summary of the method: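 H4 cells in sodium-free HEPES buffer (pH 7.4), 2 days after plating; glutamate release induced with 50 μM L-cystine plus compound (1% DMSO), 2 h at 37 °C. Supernatant glutamate measured by Amplex Red fluorescence; IC50/pIC50 derived between 1% DMSO and 50 μM erastin controls.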

| IC50 (system Xc^− [2]) | IC50 (system Xc^− [3]) | SMILES | inhibition of the System Xc− antiporter (system Xc^− [1]) | potency on human System Xc− function (system Xc^− [1]) |
| --- | --- | --- | --- | --- |
| 39.8 to 100 nM | 100 to 501 nM | Cc1cc2c(c(F)n1)-c1ccnnc1CC(=O)N2CC(=O)Nc1ccc(C(F)(F)F)cc1 [#110, 2-(3-fluoro-5-methyl-9-oxo-4,8,12,13-tetrazatricyclo[9.4.0.0^2,7]pentadeca-1(11),2,4,6,12,14-hexaen-8-yl)-N-[4-(trifluoromethyl)phenyl]acetamide] | – | – |
| 15.8 to 39.8 nM | < 15.8 nM | Cc1cc2c(c(F)n1)-c1ncc(F)cc1C(C)C(=O)N2CC(=O)Nc1ccc(Cl)c(F)c1 (single isomer, unassigned) [#303, N-(4-chloro-3-fluoro-phenyl)-2-[5,15-difluoro-8,13-dimethyl-9-oxo-3,10,14-triazatricyclo[9.4.0.0^2,7]pentadeca-1(15),2,4,6,11,13-hexaen-10-yl]acetamide] | – | – |
| 15.8 to 39.8 nM | 39.8 to 100 nM | COc1cc2c(c(F)n1)-c1cccnc1C(C)C(=O)N2CC(=O)Nc1ccc(F)c(Cl)c1 (single isomer, unassigned) [#216, Enantiomer (10S) or (10R) of N-(3-chloro-4-fluoro-phenyl)-2-(3-fluoro-5-methoxy-10-methyl-9-oxo-4,8,12-triazatricyclo[9.4.0.0^2,7]pentadeca-1(11),2(7),3,5,12,14-hexaen-8-yl)acetamide] | – | – |

The next lines start with the compound.

| SMILES | IC50 (system Xc^− [2]) | IC50 (system Xc^− [3]) | inhibition of the System Xc− antiporter (system Xc^− [1]) | potency on human System Xc− function (system Xc^− [1]) |
| --- | --- | --- | --- | --- |
| O=C(O)c1cc(/N=N/c2ccc(S(=O)(=O)Nc3ccccn3)cc2)ccc1O [Sulfasalazine] | – | – | non-selective inhibitor | low |
| O=C(CN1C(=O)C(CO)c2ncccc2-c2c(F)cc(F)cc21)Nc1ccc(Cl)c(F)c1 (single isomer, unassigned) [#381, N-(4-chloro-3-fluoro-phenyl)-2-[9,11-difluoro-5-(hydroxymethyl)-6-oxo-5H-pyrido[2,3-d][1]benzazepin-7-yl]acetamide] | 100 to 501 nM | 39.8 to 100 nM | – | – |
